This is an account of results in patent US10752587B2, “Homobispiperidinyl derivatives as liver X receptor beta agonists, compositions and their use” (Merck Sharp & Dohme Corp., priority 2015, dated 2020).

For assay [1], the target named is T1, glutathione-S-transferase (GST) tagged LXRbeta LBD (ligand binding domain) (Homo sapiens, UniProt P55055).
T1 construct: purchased Invitrogen pv4658.pps
T1 sequence (P55055 222-460 limits assumed): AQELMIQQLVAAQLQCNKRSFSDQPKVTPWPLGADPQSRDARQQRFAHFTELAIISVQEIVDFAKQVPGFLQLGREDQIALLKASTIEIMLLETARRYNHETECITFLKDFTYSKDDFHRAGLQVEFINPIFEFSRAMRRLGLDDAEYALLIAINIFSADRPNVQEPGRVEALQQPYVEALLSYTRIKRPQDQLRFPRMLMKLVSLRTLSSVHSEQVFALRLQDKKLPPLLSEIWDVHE
The assay is described as follows: LanthaScreen TR-FRET Liver X Receptor Coactivator Assay, co-activator recruitment to LXRbeta LBD. The format is biochemical. Put shortly: (§1)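 Readout is time-resolved FRET between a terbium anti-GST antibody bound to the LBD and a fluorescein-tagged coactivator peptide recruited on ligand binding. Plates were incubated at room temperature before reading. Potency (IP) and efficacy (Emax) are referenced to T0901317.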
A general note: In TR-FRET formats the signal depends on donor and acceptor labels being close together.

Assay [2] concerns the target T2, glutathione-S-transferase (GST) tagged LXRalpha LBD (ligand binding domain) (Homo sapiens, UniProt Q13133).
T2 construct: purchased Invitrogen pv4655
T2 sequence (Q13133 209-447 limits assumed): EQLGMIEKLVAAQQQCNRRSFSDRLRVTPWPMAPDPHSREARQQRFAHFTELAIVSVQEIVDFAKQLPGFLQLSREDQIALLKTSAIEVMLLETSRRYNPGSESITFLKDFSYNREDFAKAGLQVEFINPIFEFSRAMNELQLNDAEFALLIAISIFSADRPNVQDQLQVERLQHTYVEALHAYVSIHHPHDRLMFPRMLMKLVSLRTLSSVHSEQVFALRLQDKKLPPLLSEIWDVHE
The assay is described as follows: LanthaScreen TR-FRET Liver X Receptor Coactivator Assay, co-activator recruitment to LXRalpha LBD. It is filed as biochemical. Put shortly: as §1

The mark [3] stands for this setting: efficacy at max dose, in relation to reference dual agonist T0901317, read-out: LXR beta Activity @ max dose (%).
[4] abbreviates: potency (Inflection Point, IP), co-activator recruitment to LXRbeta LBD, in relation to T0901317, read-out: LXR beta IP.
The mark [5] stands for this setting: efficacy at max dose, in relation to reference dual agonist T0901317, read-out: LXR alpha Activity @ max dose (%).
Where [6] appears, read: potency (Inflection Point, IP), co-activator recruitment to LXRalpha LBD, in relation to T0901317, read-out: LXR alpha IP.
Where [7] appears, read: potency (Inflection Point, IP), co-activator recruitment to LXRalpha LBD, in relation to T0901317.

pEC50: −log10 of the molar value. Like-named read-outs stand apart in the source and are kept apart here.

Turning to `CN(C)C(=O)c1ccc(N2CCC(CC3CCN(C(=O)[C@](O)(c4cccc(OC(F)F)c4)C(F)(F)F)CC3)CC2)cc1Cl` [Example 2-116, 2-chloro-4-{4-[(1-{(2R)-2-[3-(difluoro-methoxy)phenyl]-3,3,3-trifluoro-2-hydroxy-propanoyl}piperidin-4-yl)methyl]piperidin-1-yl}-N,N-dimethyl-benzamide], the Emax in assay [1] (setting [3]) was 58%; in assay [2] (setting [5]), 20%. In addition, the pEC50 in assay [1] (setting [4]) was 8.15; in assay [2] (setting [6]), 6.64.
As for `CN(C)C(=O)c1ncc(N2CCC(CC3CCN(C(=O)C(O)(c4cccc(C(F)(F)F)c4)C(F)(F)F)CC3)CC2)cc1Cl` (stereo not shown) [Example 2-5, 3-chloro-N,N-dimethyl-5-{4-[(1-{3,3,3-trifluoro-2-hydroxy-2-[3-(trifluoromethyl)phenyl]propanoyl}piperidin-4-yl)methyl]piperidin-1-yl}pyridine-2-carboxamide], the Emax in assay [1] (setting [3]) was 57%; in assay [2] (setting [5]) it was 19%. In addition, the pEC50 is 7.54 in assay [1] (setting [4]) and 6.12 in assay [2] (setting [6]).
`CN(C)C(=O)c1ccc(N2CCC(CC3CCN(C(=O)[C@](O)(c4cccc(Br)c4)C(F)(F)F)CC3)CC2)cc1Cl` [Example 2-83, 4-[4-({1-[(2R)-2-(3-bromo-phenyl)-3,3,3-trifluoro-2-hydroxy-propanoyl]piperidin-4-yl}methyl)piperidin-1-yl]-2-chloro-N,N-dimethyl-benzamide]: the results for the Emax in assay [1] (setting [3]) and in assay [2] (setting [5]) were 68% and 26%, respectively. For the same compound, the pEC50 in assay [1] (setting [4]) was 8.40; in assay [2] (setting [6]), 7.08.
For `COc1nc(N2CCC(CC3CCN(C(=O)[C@](O)(c4ccccc4)C(F)(F)F)CC3)CC2)ccc1C(=O)N(C)C` [Example 7-18, 2-methoxy-N,N-dimethyl-6-[4-({1-[(2R)-3,3,3-trifluoro-2-hydroxy-2-phenylpropanoyl]piperidin-4-yl}methyl)piperidin-1-yl] pyridine-3-carboxamide], in that order: 80%, 34%, 8.22 and 6.35.
Consider `COc1cc(F)cc([C@@](O)(C(=O)N2CCC(CC3CCN(c4ccc(C(=O)N(C)C)cc4)CC3)CC2)C(F)(F)F)c1` [Example 2-137, N,N-dimethyl-4-[4-({1-[(2R)-3,3,3-trifluoro-2-(3-fluoro-5-methoxyphenyl)-2-hydroxy-propanoyl]piperidin-4-yl}methyl)piperidin-1-yl]benzamide], for which the figures for the Emax in assay [1] (setting [3]) and in assay [2] (setting [5]) were 78% and 15%, respectively. In addition, the pEC50 in assay [1] (setting [4]) was 7.52. For the same compound, the “LXR alpha IP (nM)” value in assay [2] (setting [7]) is “NO IP”.
As to `Cc1cc(N2CCC(CC3CCN(C(=O)[C@](O)(c4cccc(C(F)(F)F)c4)C(F)(F)F)CC3)CC2)ccc1C(=O)N(C)C` [Example 2-148, N,N,2-trimethyl-4-{4-[(1-{(2R)-3,3,3-trifluoro-2-hydroxy-2-[3-(trifluoromethyl)phenyl]propanoyl}piperidin-4-yl)methyl]piperidin-1-yl}benzamide], the Emax in assay [1] (setting [3]) amounted to 62%; in assay [2] (setting [5]) it was 22%. The pEC50 was 7.62 in assay [1] (setting [4]) and 6.40 in assay [2] (setting [6]).
As to `CCOc1cccc([C@@](O)(C(=O)N2CCC(CC3CCN(c4ccc(C(=O)N(C)C)c(Cl)n4)CC3)CC2)C(F)(F)F)c1` [Example 7-92, 2-chloro-6-[4-({1-[(2R)-2-(3-ethoxyphenyl)-3,3,3-trifluoro-2-hydroxypropanoyl]piperidin-4-yl}methyl)piperidin-1-yl]-N,N-dimethylpyridine-3-carboxamide], the Emax in assay [1] (setting [3]) was 51%; in assay [2] (setting [5]), 8%. Besides, the pEC50 in assay [1] (setting [4]) is 8.22. Further, the “LXR alpha IP (nM)” value in assay [2] (setting [7]) is reported as “NO IP”.
Regarding `CN(C)C(=O)c1ccc(N2CCC(CC3CCN(C(=O)[C@@](O)(c4cccc(Br)c4)C(F)(F)F)CC3)CC2)nc1Cl` [Example 7-68, 6-[4-({1-[(2S)-2-(3-bromophenyl)-3,3,3-trifluoro-2-hydroxypropanoyl]piperidin-4-yl}methyl)piperidin-1-yl]-2-chloro-N,N-dimethylpyridine-3-carboxamide], the results for the Emax in assay [1] (setting [3]) and in assay [2] (setting [5]) were 118% and 12%, respectively. Also, the pEC50 in assay [1] (setting [4]) was 7.19; in assay [2] (setting [6]) it was 5.99.
As to `CN(C)C(=O)c1ccc(N2CCN(CC3CCN(C(=O)[C@](O)(c4ccccc4)C(F)(F)F)CC3)CC2)cc1Cl` [Example 6-1, 2-chloro-N,N-dimethyl-4-[4-({1-[(2R)-3,3,3-trifluoro-2-hydroxy-2-phenylpropanoyl]piperidin-4-yl}methyl)piperazin-1-yl]benzamide], the pEC50 in assay [1] (setting [4]) is 7.08; in assay [2] (setting [6]), 5.04. In addition, the values for the Emax in assay [1] (read-out: LXR beta Activity @ max dose (%)) and in assay [2] (setting [5]) were 60% and 29%, respectively.
As to `CN(C)C(=O)c1ccc(N2CCC(CC3CCN(C(=O)C(O)(c4cccc(F)c4)C(F)F)CC3)CC2)cc1Cl` (stereo not shown) [Example 2-122, 2-chloro-4-[4-({1-[3,3-difluoro-2-(3-fluorophenyl)-2-hydroxy-propanoyl]piperidin-4-yl}methyl)piperidin-1-yl]-N,N-dimethyl-benzamide], the Emax in assay [1] (setting [3]) was found to be 69%; in assay [2] (setting [5]) it was 29%. In addition, the pEC50 in assay [1] (setting [4]) was 7.57; in assay [2] (setting [6]), 6.27.
As for `CN(C)C(=O)c1ccc(N2CCC(CC3CCN(C(=O)[C@](O)(c4cccc(Cl)c4)C(F)(F)F)CC3)CC2)cc1` [Example 2-131, 4-[4-({1-[(2R)-2-(3-chloro-phenyl)-3,3,3-trifluoro-2-hydroxy-propanoyl]piperidin-4-yl}methyl)piperidin-1-yl]-N,N-dimethyl-benzamide], the Emax in assay [1] (setting [3]) stood at 59%; in assay [2] (setting [5]) it was 10%. Further, the pEC50 in assay [1] (setting [4]) was 7.28. Moreover, the “LXR alpha IP (nM)” value in assay [2] (setting [7]) is reported as “NO IP”.
Turning to `CNC(=O)c1ccc(N2CCC(CC3CCN(C(=O)[C@](O)(c4ccccc4)C(F)(F)F)CC3)CC2)nc1Cl` [Example 7-141, 2-chloro-N-methyl-6-[4-({1-[(2R)-3,3,3-trifluoro-2-hydroxy-2-phenylpropanoyl]piperidin-4-yl}methyl)piperidin-1-yl]pyridine-3-carboxamide], the values for the Emax in assay [1] (setting [3]) and in assay [2] (setting [5]) were 102% and 47%, respectively. Besides, the pEC50 in assay [1] (setting [4]) was 7.89; in assay [2] (setting [6]), 6.76.
For `CN(C)C(=O)c1ccc(N2CCC(OC3CCN(C(=O)C4(C(F)(F)F)CCCCC4)CC3)CC2)cc1Cl` [Example 2-19, 2-chloro-N,N-dimethyl-4-{4-[(1-{[1-(trifluoromethyl)cyclohexyl]carbonyl}piperidin-4-yl)oxy]piperidin-1-yl}benzamide], in that order: 75%, 23%, 6.69 and 5.74.
On to `CN(C)C(=O)c1ccc(N2CCC(CC3CCN(C(=O)[C@](O)(c4cccc(OC5CC5)c4)C(F)(F)F)CC3)CC2)cc1Cl` [Example 2-99, 2-chloro-4-{4-[(1-{(2R)-2-[3-(cyclopropyloxy)phenyl]-3,3,3-trifluoro-2-hydroxy-propanoyl}piperidin-4-yl)methyl]piperidin-1-yl}-N,N-dimethyl-benzamide], for which the Emax in assay [1] (setting [3]) was found to be 37%; in assay [2] (setting [5]) it was 0%. The pEC50 in assay [1] (setting [4]) is 8.10. Also, the “LXR alpha IP (nM)” value in assay [2] (setting [7]) is “NO IP”.
Take `CN(C)C(=O)c1ccc(N2CCC(CC3CN(C(=O)[C@](O)(c4cc(Cl)cc(Cl)c4)C(F)(F)F)C3)CC2)cc1Cl` [Example 2-67, 2-chloro-4-[4-({1-[(2R)-2-(3,5-dichloro-phenyl)-3,3,3-trifluoro-2-hydroxy-propanoyl]azetidin-3-yl}methyl)piperidin-1-yl]-N,N-dimethyl-benzamide]: the Emax in assay [1] (setting [3]) was found to be 77%; in assay [2] (setting [5]) it was 9%. Also, the pEC50 in assay [1] (setting [4]) was 7.72. Also, the “LXR alpha IP (nM)” value in assay [2] (setting [7]) is “NO IP”.
As to `CC(C)c1cccc([C@@](O)(C(=O)N2CCC(CC3CCN(c4ccc(C(N)=O)c(Cl)c4)CC3)CC2)C(F)(F)F)c1` [Example 12-10, 2-chloro-4-{4-[(1-{(2R)-3,3,3-trifluoro-2-hydroxy-2-[3-(1-methylethyl)phenyl]-propanoyl}piperidin-4-yl)methyl]piperidin-1-yl}benzamide], the pEC50 is 8.10 in assay [1] (co-activator recruitment to GST-LXRbeta LBD, TR-FRET, read-out: LXR beta IP (Inflection Point, potency)) and 7.07 in assay [2] (co-activator recruitment to GST-LXRalpha LBD, TR-FRET, read-out: LXR alpha IP (Inflection Point, potency)). Besides, the Emax is 51% in assay [1] (efficacy in relation to reference dual agonist T0901317, read-out: LXR beta Activity @ max dose) and 26% in assay [2] (efficacy in relation to reference dual agonist T0901317, read-out: LXR alpha Activity @ max dose).
